Test results reported in ChEMBL document CHEMBL5727040, “Factor XIa inhibitors” (2018).

How the values were obtained:
Plasma kallikrein = Plasma kallikrein (Homo sapiens, UniProt P03952); experiment: Kallikrein Assay: The effectiveness of a compound of the present invention as an inhibitor of Kallikrein can be determined using a relevant purified serine protease, and an appropriate synthetic substrate. The rate of hydrolysis of the chromogenic or fluorogenic substrate by the relevant serine protease was measured both in the absence and presence of compounds of the present invention. Assays were conducted at room temperature or at 37° C. […] A decrease in the rate of fluorescence change in the presence of inhibitor is indicative of enzyme inhibition. Such methods are known to one skilled in the art. […] Times required to achieve equilibration between enzyme and inhibitor were determined in control experiments. The reactions were performed under linear progress curve conditions and fluorescence increase measured at 405 Ex/510 Em nm. […] IC50 was determined by inflection point from a four parameter logistic curve fit. Ki was calculated using the Cheng Prusoff equation, Ki=IC50/(1+([S]/Km)).
Sequence of Plasma kallikrein (P03952 20-390 limits assumed): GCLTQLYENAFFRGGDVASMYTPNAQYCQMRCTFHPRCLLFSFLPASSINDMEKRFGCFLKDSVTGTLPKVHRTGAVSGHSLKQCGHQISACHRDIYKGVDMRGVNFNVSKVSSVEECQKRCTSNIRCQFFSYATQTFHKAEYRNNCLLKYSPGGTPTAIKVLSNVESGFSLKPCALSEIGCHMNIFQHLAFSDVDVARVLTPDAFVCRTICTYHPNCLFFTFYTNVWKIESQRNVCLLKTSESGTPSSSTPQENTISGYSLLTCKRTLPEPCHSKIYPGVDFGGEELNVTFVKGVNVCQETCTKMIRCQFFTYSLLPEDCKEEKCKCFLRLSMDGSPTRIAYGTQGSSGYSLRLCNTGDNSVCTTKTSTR
Sequence of Plasma kallikrein (P03952 391-638 limits assumed): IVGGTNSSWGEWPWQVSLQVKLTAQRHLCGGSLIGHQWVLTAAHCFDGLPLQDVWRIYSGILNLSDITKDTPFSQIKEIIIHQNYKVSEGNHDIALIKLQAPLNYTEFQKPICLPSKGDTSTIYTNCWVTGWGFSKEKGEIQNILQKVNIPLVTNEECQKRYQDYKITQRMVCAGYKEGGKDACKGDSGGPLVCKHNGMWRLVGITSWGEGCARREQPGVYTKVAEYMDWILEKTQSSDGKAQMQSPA

Coagulation factor XI = Coagulation factor XI (Homo sapiens, UniProt P03951); experiment: Inhibition Assay: Factor XIa determinations were made in 50 mM HEPES buffer at pH 7.4 containing 150 mM NaCl, 5 mM CaCl2, and 0.1% PEG 8000 (polyethylene glycol; JT Baker or Fisher Scientific). Determinations were made using purified human Factor XIa at a final concentration of 40 pM (Sekisui Diagnostics) and the synthetic substrate, Z-Gly-Pro-Arg-AFC, TFA salt (Sigma #C0980) at a concentration of 100 μM.
Sequence of Coagulation factor XI (P03951 19-387 limits assumed): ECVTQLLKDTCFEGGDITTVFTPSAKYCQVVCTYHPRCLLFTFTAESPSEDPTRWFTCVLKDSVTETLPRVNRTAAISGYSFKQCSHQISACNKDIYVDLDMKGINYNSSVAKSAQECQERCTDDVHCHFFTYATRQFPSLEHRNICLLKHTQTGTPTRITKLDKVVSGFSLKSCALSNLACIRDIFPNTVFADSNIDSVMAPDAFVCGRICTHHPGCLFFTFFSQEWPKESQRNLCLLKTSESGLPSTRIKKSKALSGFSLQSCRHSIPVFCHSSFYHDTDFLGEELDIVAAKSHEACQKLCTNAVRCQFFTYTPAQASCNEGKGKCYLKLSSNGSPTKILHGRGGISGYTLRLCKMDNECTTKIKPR
Sequence of Coagulation factor XI (P03951 388-625 limits assumed): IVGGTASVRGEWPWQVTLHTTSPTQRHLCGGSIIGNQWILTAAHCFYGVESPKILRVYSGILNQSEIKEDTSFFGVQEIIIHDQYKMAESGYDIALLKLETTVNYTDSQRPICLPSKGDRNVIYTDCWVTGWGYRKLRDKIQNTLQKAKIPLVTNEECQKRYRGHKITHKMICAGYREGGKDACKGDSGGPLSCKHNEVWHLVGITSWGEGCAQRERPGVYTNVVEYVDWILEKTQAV

O=C(NC1CC=CC1)N1CCC(c2cccc([C@H](Cc3ccccc3)c3ccc(-c4cc(Cl)ccc4-n4cnnn4)c[n+]3[O-])c2)CC1
IC50 (Plasma kallikrein): 696 nM
IC50 (Coagulation factor XI): 18.5 nM
